In publication PMC10223284, “Category-Based Toxicokinetic Evaluations of Data-Poor Per- and Polyfluoroalkyl Substances (PFAS) using Gas Chromatography Coupled with Mass Spectrometry” (Toxics, 2023):
Values joined by “and” are separate entries in the source; they are usually repeats but may differ in a detail not shown here. Equal values may be shown once.

System: human plasma
Assay: Chemical stability in plasma over the UC assay time course (T5hr/T1hr)
Conditions: for Time 1 hr / Time 1 hr, Run-specific Avg: amount measured in plasma sample at 1 hr; for Time 1 hr / Time 5 hr: replicates A, B, C; for Time 1 hr / Time 1 hr, Run-specific Avg / Time 5 hr / Time 5 hr, Run-specific Avg: unit not given; for Time 1 hr, Run-specific Avg / Time 5 hr, Run-specific Avg: run average; for Time 5 hr / Time 5 hr, Run-specific Avg: amount measured in plasma sample at 5 hr; for PPB_Stab_Fail: flag for stability failure in the plasma protein binding assay (1 = fail, 0 = pass); for Fstable.Med: median fraction stable in plasma, UC assay Level4
[1] = mean T5hr/T1hr ratio in plasma over all replicates/runs

Compound	Time 1 hr	Time 1 hr, Run-specific Avg	Time 5 hr	Time 5 hr, Run-specific Avg	Stability (T5hr/ T1hr), Run-specific Avg (average of one UC run)	PPB_Stab_Fail	Mean Stability [1]	Fstable.Med	Mean Stability (T5hr/T1hr) (mean over all UC runs and replicates, human plasma)	Stability (T5hr/ T1hr), Run-specific Avg (average of one UC run (run date in line above))	Mean Stability (mean T5hr/T1hr ratio over all replicates and runs, plasma)	Stability (T5hr/ T1hr), replicates A, B, C (single replicate of one UC run)
OCCC(F)(F)C(F)(F)C(F)(F)C(F)(F)F [4:2 Fluorotelomer alcohol]	13164.3 and 12271.8 and 13036	12824.02	8478.66 and 10253.1 and 9709.96	9365.87	0.730	0	0.740	0.21	–	–	–	–
NC(=O)C(F)(F)C(F)(F)C(F)(F)F [Heptafluorobutyramide]	–	9336.10	–	8817.96	0.945	0	0.963	0.999	0.963	–	–	–
OCC(F)(F)C(F)(F)C(F)(F)C(F)(F)C(F)(F)C(F)(F)C(F)(F)C(F)(F)CO [1H,1H,10H,10H-Perfluorodecane-1,10-diol]	7311.43 and 5462.42 and 6036.15	6270.00	3659.49 and 4052.89 and 4429.19	3856.19	0.615	0	0.657	0.997	–	0.958	1.003	1.07 and 1.007 and 0.9333 and 0.9811 and 1.003 and 1.254
